In US6783541B2, “Methods for inhibiting or suppressing stenosis of arteriovenous access fistulas and grafts” (Miravant Medical Technologies, Inc., priority 2001, dated 2004):

How the values were obtained:
[1] = test system: stenosis in a canine model of prosthetic AV access graft; assay: PDT in a canine model of prosthetic AV access graft; type: in vivo, female mongrel dogs
Method: The work described below was undertaken to evaluate the effects of application of an embodiment of the method of the present invention on the suppression of stenosis in a canine model of prosthetic AV access graft.
Initial studies using light-treatment without MV6401 confirmed no effect on the stenosis. Bilateral femoral PTFE AV access grafts were implanted in four female mongrel dogs. MV6401 (2 mg/kg, IV) was given one hour prior to the operation, and PDT was administered using an endolumenal non-thermal balloon catheter light source immediately after AV access graft placement. The contralateral side received a sham balloon treatment without light activation. The animals were sacrificed four weeks after the treatment, at which time the grafts were harvested, sectioned and examined by histology. Venous anastomotic sites were graded by an individual blinded to the treatment parameters and graded on a categorical scale (0-5) of lesion progression. Thickness of the stenotic lesion was determined using computer morphometry.

[2] = Preliminary uptake studies by HPLC and fluorescence microscopy

long term detrimental effects ([1]; PDT dose sufficient to substantially deplete cell population in vessel wall): no detrimental long term effects noted
Structure (SMILES): C=Cc1c(C)c2[n]3c1=CC1=NC(=Cc4c(C)c5c([n]4[In]3[Cl])C(=C3N=C(C=2)[C@@H](C)[C@@H]3CCC(=O)OC)CC5=O)C(CC)=C1C [MV6401]
graft fibrosis grade at venous anastomotic site (categorical scale 0-5) ([1]; MV6401 2 mg/kg IV 1 h before operation, endolumenal balloon light, 4 weeks after treatment, sham side without light 2.25±0.08, P=0.02): 1.13±0.15
thickness of the stenotic lesions at the venous anastomosis ([1]; MV6401 2 mg/kg IV plus light, 4 weeks after PDT, computer morphometry, sham side without light 1.51±0.11 mm, P=0.006): 0.49±0.06 mm
acellularity in the vessel wall ([1]; PDT dose used (MV6401 2 mg/kg IV plus light)): substantial acellularity in the vessel wall
AV access graft patency ([1]; four weeks after treatment): patent and fully functioning
incorporation of drug into tissue [2]: incorporation into stenotic lesions and surrounding vessel wall
